In ChEMBL document CHEMBL1155850, “Synthesis and biological evaluation of a focused library of beauveriolides” (Bioorg Med Chem Lett, 2008):

Columns and labels:
[1] = target: T1, Sterol O-acyltransferase 1 (Mus musculus) (UniProt Q61263); assay: Inhibition of ACAT in mouse liver microsomes at 20 uM; settings: Microsome
T1 sequence (whole entry): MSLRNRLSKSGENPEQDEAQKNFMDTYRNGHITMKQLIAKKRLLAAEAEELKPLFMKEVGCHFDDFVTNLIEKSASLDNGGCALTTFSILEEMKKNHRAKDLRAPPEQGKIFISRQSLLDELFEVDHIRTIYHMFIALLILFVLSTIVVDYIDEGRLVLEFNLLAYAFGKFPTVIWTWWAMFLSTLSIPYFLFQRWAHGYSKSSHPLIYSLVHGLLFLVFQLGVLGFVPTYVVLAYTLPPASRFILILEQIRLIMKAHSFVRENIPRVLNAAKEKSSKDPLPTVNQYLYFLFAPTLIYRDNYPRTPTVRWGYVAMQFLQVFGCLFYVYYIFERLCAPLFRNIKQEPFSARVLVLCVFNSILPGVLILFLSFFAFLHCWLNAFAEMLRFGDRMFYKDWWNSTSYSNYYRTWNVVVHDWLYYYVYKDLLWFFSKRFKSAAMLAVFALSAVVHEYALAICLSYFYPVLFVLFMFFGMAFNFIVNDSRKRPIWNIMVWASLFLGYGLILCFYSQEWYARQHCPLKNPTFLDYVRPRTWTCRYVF

[2] = test system: Macrophage; assay: Inhibition of cholesterol ester synthesis in mouse macrophages assessed as lipid droplet accumulation; format: functional, cell-based

Row | SMILES | inhibition [1] [%] | IC50 [2] [nM]
1 | CCCC[C@H](C)[C@@H]1CC(=O)N[C@@H](C(c2ccccc2)c2ccccc2)C(=O)N[C@H](C)C(=O)N[C@H](Cc2ccccc2)C(=O)O1 | 75 | 240
2 | CCCC[C@H](C)[C@@H]1CC(=O)N[C@@H](C(c2ccccc2)c2ccccc2)C(=O)N[C@@H](C)C(=O)N[C@H]([C@H](C)CC)C(=O)O1 | 88 | 20
3 | CCCC[C@H](C)[C@@H]1CC(=O)N[C@H](Cc2ccccc2)C(=O)N[C@@H](CC(N)=O)C(=O)N[C@H](CC(C)C)C(=O)O1 | 4 | > 20000
4 | CCCC[C@H](C)[C@@H]1CC(=O)N[C@@H](Cc2ccccc2)C(=O)N[C@H](C)C(=O)N[C@H]([C@H](C)CC)C(=O)O1 | 96 | 650
5 | CCCC[C@H](C)[C@@H]1CC(=O)N[C@H](Cc2ccccc2)C(=O)N[C@@H](C)C(=O)N[C@H]([C@@H](C)CC)C(=O)O1 | 20 | > 20000
6 | CCCC[C@H](C)[C@@H]1CC(=O)N[C@H](Cc2ccccc2)C(=O)N[C@@H](CO)C(=O)N[C@H](Cc2ccccc2)C(=O)O1 | 95 | 110
7 | CCCC[C@H](C)[C@@H]1CC(=O)N[C@@H](C(c2ccccc2)c2ccccc2)C(=O)N[C@@H](C)C(=O)N[C@H]([C@@H](C)CC)C(=O)O1 | 95 | 40
8 | CCCC[C@H](C)[C@@H]1CC(=O)N[C@H](Cc2ccccc2)C(=O)N[C@@H](C)C(=O)N[C@H](Cc2ccccc2)C(=O)O1 | 47 | > 20000
9 | CCCC[C@H](C)[C@@H]1CC(=O)N[C@@H](Cc2ccccc2)C(=O)N[C@@H](C)C(=O)N[C@H](CC(C)C)C(=O)O1 [BEAUVERIOLIDE I] | 95 | 600
10 | CCCC[C@H](C)[C@@H]1CC(=O)N[C@H](Cc2ccccc2)C(=O)N[C@H](C)C(=O)N[C@H](Cc2ccccc2)C(=O)O1 | 60 | 300
11 | CCCC[C@H](C)[C@@H]1CC(=O)N[C@@H](C(c2ccccc2)c2ccccc2)C(=O)N[C@@H](C)C(=O)N[C@H](CC(C)C)C(=O)O1 | 83 | 80
12 | CCCC[C@H](C)[C@@H]1CC(=O)N[C@@H](Cc2ccccc2)C(=O)N[C@@H](C)C(=O)N[C@H](Cc2ccccc2)C(=O)O1 | 76 | 7500
13 | CCCC[C@H](C)[C@@H]1CC(=O)N[C@@H](C(c2ccccc2)c2ccccc2)C(=O)N[C@@H](CC(N)=O)C(=O)N[C@H](CC(C)C)C(=O)O1 | 98 | 2000
14 | CCCC[C@H](C)[C@@H]1CC(=O)N[C@@H](Cc2ccccc2)C(=O)N[C@H](C)C(=O)N[C@H](CC(C)C)C(=O)O1 | 98 | 480
15 | CCCC[C@H](C)[C@@H]1CC(=O)N[C@@H](C(c2ccccc2)c2ccccc2)C(=O)N[C@@H](CO)C(=O)N[C@H](Cc2ccccc2)C(=O)O1 | 96 | 160
16 | CCCC[C@H](C)[C@@H]1CC(=O)N[C@H](Cc2ccccc2)C(=O)N[C@@H](C)C(=O)N[C@H]([C@H](C)CC)C(=O)O1 | 70 | > 20000
17 | CCCC[C@H](C)[C@@H]1CC(=O)N[C@@H](Cc2ccccc2)C(=O)N[C@@H](C)C(=O)N[C@H]([C@H](C)CC)C(=O)O1 | 80 | 1700
18 | CCCC[C@H](C)[C@@H]1CC(=O)N[C@@H](Cc2ccccc2)C(=O)N[C@@H](CC(N)=O)C(=O)N[C@H](Cc2ccccc2)C(=O)O1 | 11 | > 20000
19 | CCCC[C@H](C)[C@@H]1CC(=O)N[C@@H](Cc2ccccc2)C(=O)N[C@@H](C)C(=O)N[C@H]([C@@H](C)CC)C(=O)O1 [BEAUVERIOLIDE III] | 91 | 400

Row | SMILES | inhibition [1] [%] | IC50 [2] [nM]
20 | CCCC[C@H](C)[C@@H]1CC(=O)N[C@@H](Cc2ccccc2)C(=O)N[C@@H](CC(N)=O)C(=O)N[C@H](CC(C)C)C(=O)O1 | 43 | > 20000
21 | CCCC[C@H](C)[C@@H]1CC(=O)N[C@@H](C(c2ccccc2)c2ccccc2)C(=O)N[C@H](C)C(=O)N[C@H](CC(C)C)C(=O)O1 | 93 | 70
22 | CCCC[C@H](C)[C@@H]1CC(=O)N[C@@H](C(c2ccccc2)c2ccccc2)C(=O)N[C@H](C)C(=O)N[C@H]([C@@H](C)CC)C(=O)O1 | 91 | 20
23 | CCCC[C@H](C)[C@@H]1CC(=O)N[C@H](Cc2ccccc2)C(=O)N[C@@H](CC(N)=O)C(=O)N[C@H](C[C@@H](C)CC)C(=O)O1 |  | > 20000
24 | CCCC[C@H](C)[C@@H]1CC(=O)N[C@H](Cc2ccccc2)C(=O)N[C@@H](CC(N)=O)C(=O)N[C@H](Cc2ccccc2)C(=O)O1 | 8 | > 20000
25 | CCCC[C@H](C)[C@@H]1CC(=O)N[C@H](Cc2ccccc2)C(=O)N[C@H](C)C(=O)N[C@H](CC(C)C)C(=O)O1 | 96 | 1000
26 | CCCC[C@H](C)[C@@H]1CC(=O)N[C@@H](C(c2ccccc2)c2ccccc2)C(=O)N[C@@H](CC(N)=O)C(=O)N[C@H](Cc2ccccc2)C(=O)O1 | 97 | 900
27 | CCCC[C@H](C)[C@@H]1CC(=O)N[C@@H](C(c2ccccc2)c2ccccc2)C(=O)N[C@@H](CO)C(=O)N[C@H](CC(C)C)C(=O)O1 | 70 | > 20000
28 | CCCC[C@H](C)[C@@H]1CC(=O)N[C@@H](Cc2ccccc2)C(=O)N[C@@H](CO)C(=O)N[C@H](Cc2ccccc2)C(=O)O1 | 79 | 9300
29 | CCCC[C@H](C)[C@@H]1CC(=O)N[C@H](Cc2ccccc2)C(=O)N[C@H](C)C(=O)N[C@H]([C@@H](C)CC)C(=O)O1 | 99 | 900
30 | CCCC[C@H](C)[C@@H]1CC(=O)N[C@H](Cc2ccccc2)C(=O)N[C@@H](CO)C(=O)N[C@H](CC(C)C)C(=O)O1 | 40 | > 20000
31 | CCCC[C@H](C)[C@@H]1CC(=O)N[C@H](Cc2ccccc2)C(=O)N[C@@H](C)C(=O)N[C@H](CC(C)C)C(=O)O1 | 87 | > 20000
32 | CCCC[C@H](C)[C@@H]1CC(=O)N[C@H](Cc2ccccc2)C(=O)N[C@H](C)C(=O)N[C@H]([C@H](C)CC)C(=O)O1 | 91 | 2500
33 | CCCC[C@H](C)[C@@H]1CC(=O)N[C@@H](Cc2ccccc2)C(=O)N[C@H](C)C(=O)N[C@H](Cc2ccccc2)C(=O)O1 | 94 | 10000
34 | CCCC[C@H](C)[C@@H]1CC(=O)N[C@@H](Cc2ccccc2)C(=O)N[C@@H](CO)C(=O)N[C@H](CC(C)C)C(=O)O1 | 93 | 12300
35 | CCCC[C@H](C)[C@@H]1CC(=O)N[C@@H](C(c2ccccc2)c2ccccc2)C(=O)N[C@H](C)C(=O)N[C@H]([C@H](C)CC)C(=O)O1 | 97 | 20
36 | CCCC[C@H](C)[C@@H]1CC(=O)N[C@@H](C(c2ccccc2)c2ccccc2)C(=O)N[C@@H](C)C(=O)N[C@H](Cc2ccccc2)C(=O)O1 | 71 | 80
37 | CCCC[C@H](C)[C@@H]1CC(=O)N[C@@H](Cc2ccccc2)C(=O)N[C@H](C)C(=O)N[C@H]([C@@H](C)CC)C(=O)O1 | 94 | 800
